Results on 15 compounds are retold here after patent US10125184B2, “Apolipoprotein E polypeptides and their use” (priority 2011, dated 2018).

Broadly, the IC50 is the concentration that gives 50% inhibition. High values mean a need for much substance, low ones inhibition by little substance. The term solubility denotes the dissolved amount per volume that the medium holds. The low end stands for little dissolved substance, the high end for much dissolved substance.

The test system of data set [1] is JFH-1 HCVcc-Luc. The note with it: for IC50: HCVcc infection of Huh7.5.1 cells. On the procedure:
FIGS. 1A-1C. […] (A) Schematic illustration of apoE protein domains and the amino acid sequences of hEP and mEP peptides. The amino acid sequences shown are hEP-1 (SEQ ID NO: 6) and mEP (SEQ ID NO: 20). […] Huh7.5.1 cells were infected with JFH-1 HCVcc-Luc (MOI˜0.5) in the presence of hEP or mEP for 2 hours. After removal of virus and peptides, cells were further incubated for 48 hours prior to luciferase assay. Data are presented as % inhibition relative to control infections in which cells were treated with DMSO (0%). Results are expressed as mean±standard deviation (s.d.) (n=3). (C). Huh7.5.1 cells were treated with hEP or DMSO at indicated doses for 48 hours. The effect of hEP on cell viability was measured by a CellTiter Glo assay kit.
FIGS. 7A-7E. Mapping the anti-viral activity of hEP. In (A) and (B), HCVcc-luc was first mixed with indicated peptides (20 μg/ml, 2.7 μM) and then incubated with Huh7.5.1 cells for two hours at 37° C. to initiate infection. After additional 48 hours incubation, luciferase activity was measured. Results are presented as fold of inhibition relative to infections containing DMSO (n=5, mean±sd). (C) 20 μg of hEP-2 or hEP-2/ΔCys were resuspended in PBS and kept at room temperature for 30 minutes. Peptides were then mixed with 2×SDS-sample buffer without DTT and boiled for 5 minutes. Alternatively, samples were simply left unboiled or mixed with sample buffer containing DTT (2 mM). Peptide samples were then subjected to electrophoresis on a 16% tricine non-reducing gel (Invitrogen). […] (D) and (E) Mass spectrometric analysis of hEP-2 or hEP-2/ΔCys.
Detailed procedures involving the production and use of HCVpp and HCVcc have been published elsewhere (Liu et al., J Virol 2009; 83:2011-2014; Yang et al., Hepatology 2008; 48:1396-1403; Yang et al., J Biol Chem 2008; 283:8643-8653). Production procedure of HCVcc expressing firefly luciferase that was inserted between NS5A and NS5B (JFH-1 strain) was described elsewhere (Liu et al., Virology 2010; 407:160-170). Unless otherwise indicated, viruses were typically added to cells for two hours before removal. Cells were incubated for additional 48 hours followed by luciferase assay. When purification was needed, HCVcc were subjected to ultracentrifugation (SW41, 28,000×g) for 4 hours through a 20% sucrose cushion. Deidentified human sera, collected from five patients containing high-titer HCV (HCVser), were obtained.

The nature of data set [2]: physchem.
A short description of data set [3]: DMPC binding assay (turbidity OD490nm). The note with it: reduction (percentage) of turbidity (OD490nm) of DMPC solution, plateau 10 minutes after addition of peptide. On the procedure: FIGS. 3A-3C. Both hEP and mEP mediate plasma cholesterol clearance through hepatic lipoprotein receptors. (A) DMPC binding assay was conducted as described in the examples section. The turbidity of DMPC vesicle solution was monitored by OD490 nm. The curves were representative of two independent experiments. (B) HEK293T cells were loaded with DiI-LDL (5 μg/ml) along with apoE peptide-DMPC particles which competed with DiI-LDL for LDLR binding and LDLR-mediated endocytosis (for 30 min) n=3 for each group. (C) Each peptide (100 μg in 100 μl PBS) was retro-orbitally injected into 6-month-old apoE−/− mice (two mice each group). PBS (100 μl) was injected into two other mice as control. Before (set as 0 min time point) and 5 min, 30 min, 1 h, 2 h, and 4 h after the peptide or PBS injection, 30 μl blood samples were drawn for plasma cholesterol measurement using total Cholesterol Reagent Kit (Raichem, San Diego, Calif.).
1,2-dimyristoyl-sn-glycero-3-phosphatidylcholine (DMPC) (Avanti Polar Lipids Inc., Alabaster, Ala.) was dissolved in chloroform: methanol (3:1, v/v). It was dried thoroughly under a stream of N2. The dried lipid sample was dispersed in pre-warmed buffer (10 mM Tris-HCl, pH7.2; 150 mM NaCl; 0.5 mM EDTA) to final lipid concentration of 10 mg/ml, vortexed for 1 min, and sonicated 10 times at lowest power for 10 seconds at 24° C. The peptide solution, lipid solution and buffer were all maintained at 23.9° C. One milliliter buffer and 250 μg (25 μl lipid solution) were added in a quartz cuvette, and let equilibrate for 10 min, resulting in a turbid DMPC vesicle solution. Peptide solution (250 μg in 100 μl) was then added to turbid solution in the cuvette, the solution was mixed immediately, and the change of turbidity was monitored by OD at 490 nm as a function of time. If the peptide binds to DMPC vesicles, the large DMPC vesicles will be transformed into smaller DMPC-peptide particles, reducing the turbidity of the solution.

For data set [4], the system named is HCVcc-luc. Description: Attachment versus post-attachment inhibition assay. Type of data set: cell-based, Hepatitis C virus. The note with it: heparin 200 μg/ml, anti-CD81 5 μg/ml, hEP 20 μg/ml, bafilomycin A1 10 nM. On the procedure:
FIGS. 5A-5D. hEP inhibits HCV entry at the attachment step. (A) HCVcc-luc was first mixed with either scrambled peptide or hEP-2 (20 μg/ml) for one hour at room temperature. In Group 1, mixed virus was directly added to Huh7.5.1 cells, whereas in Group 2, virus was purified through ultracentrifuge at 28,000×g for 4 hours in order to remove peptide, and then used to infect Huh7.5.1 cells. **p<0.005. (B) The kinetics of hEP- and bafilomycin A1-mediated inhibition were determined by time-of-addition assays, as described in the examples section. Fitted lines represent sigmoidal time-dependent curves (mean of n=3; error bars, s.d.). (C) HCVcc-Luc was added to Huh7.5.1 cells at 4° C. and incubated for 1.5 hrs. Unbound virus was removed by 2 washes with cold media, fresh media was added, and the cells were shifted to 37° C. to allow synchronous infection to proceed. Heparin (200 μg/ml), anti-CD81 monoclonal antibody (5 μg/ml), hEP (20 μg/ml), or bafilomycin A1 (10 nM) were present in the media either continuously, during the 4° C. incubation only (attachment), or during the 37° C. incubation phase only (post-attachment). % Inhibition was calculated as 100-percent infection relative to control infections containing DMSO or an isotype antibody control containing 0.01% sodium azide (for anti-CD81 only) (mean of n=3; error bars, s.d.). (D) The effects of hEP (2.7 μM) or scrambled peptide on HCV binding were determined as described in the examples section. Results were calculated as relative RNA copies with numbers obtained from the scrambled peptide treated wells set to 100 (mean of n=3; error bars, s.d.). **p<0.005.
To investigate the mechanistic action of hEP, three sets of experiments were conducted. First, hEP-2 (SEQ ID NO: 9) or scrambled peptide-treated HCVcc were purified through ultracentrifugation to remove the peptide and then used to infect naïve Huh7.5.1 cells. […] Second, to determine the kinetics of inhibition, a time-of-addition experiment was conducted. HCV remained sensitive to bafilomycin A1, a fusion inhibitor that prevents endosome acidification, until 3 hours after the 37° C. temperature shift (FIG. 5B), which is consistent with previous reports (Koutsoudakis et al., J Virol 2006; 80:5308-5320). […] In order to determine whether hEP-2 (SEQ ID NO: 9) blocks infection at the initial attachment step or a downstream event in the HCV entry process, hEP-2 (SEQ ID NO: 9) was either added together with HCVcc to cells during the 4° C. attachment step only, and then removed prior to shifting the temperature to 37° C., or added only after the temperature shift. As a positive control, hEP-1 was present during the entire course of the experiment. […] Finally, the direct binding of virions to cell surface was measured using a real-time PCR based assay.

Ends that are not written are not given here. Peptide text beside a SMILES is read from it. Bounds are passed on as bounds.

In turn, `CC[C@H](C)[C@H](NC(=O)[C@@H](N)CS)C(=O)N[C@@H](CCCNC(=N)N)C(=O)N[C@@H](CC(C)C)C(=O)N[C@@H](CCC(N)=O)C(=O)N[C@@H](C)C(=O)N[C@@H](CCC(=O)O)C(=O)N[C@@H](C)C(=O)N[C@@H](Cc1ccccc1)C(=O)N[C@@H](CCC(N)=O)C(=O)N[C@@H](C)C(=O)N[C@@H](CCCNC(=N)N)C(=O)N[C@@H](CC(C)C)C(=O)N[C@@H](CCCCN)C(=O)N[C@@H](CO)C(=O)N[C@@H](Cc1c[nH]c2ccccc12)C(=O)N[C@@H](Cc1ccccc1)C(=O)N[C@@H](CCC(=O)O)C(=O)N1CCC[C@H]1C(=O)N[C@@H](CC(C)C)C(=O)N[C@H](C(=O)O)C(C)C` [hEP-5] came in with an IC50 in data set [1] above 10 µM.

`CC(C)C[C@H](NC(=O)[C@H](CC(=O)O)NC(=O)[C@H](CC(=O)O)NC(=O)[C@H](C)NC(=O)[C@H](CC(=O)O)NC(=O)[C@H](CCCNC(=N)N)NC(=O)[C@H](CC(C)C)NC(=O)[C@H](CC(C)C)NC(=O)[C@H](CCCNC(=N)N)NC(=O)[C@H](CCCCN)NC(=O)[C@H](CCCNC(=N)N)NC(=O)[C@H](CC(C)C)NC(=O)[C@H](CCCCN)NC(=O)[C@H](CCCNC(=N)N)NC(=O)[C@H](CC(C)C)NC(=O)[C@H](Cc1c[nH]cn1)NC(=O)[C@H](CO)NC(=O)[C@H](C)NC(=O)[C@H](CC(C)C)NC(=O)[C@H](CCCNC(=N)N)NC(=O)[C@@H](NC(=O)[C@H](CCCNC(=N)N)NC(=O)[C@H](CC(C)C)NC(=O)[C@H](CCC(=O)O)NC(=O)[C@@H](N)CCC(=O)O)C(C)C)C(=O)O` [hEP-8] returned a concentration for half-maximal inhibition (IC50) in data set [1] above 10 µM.

Consider `CC(C)C[C@H](NC(=O)[C@H](CC(=O)O)NC(=O)[C@H](CC(=O)O)NC(=O)[C@H](C)NC(=O)[C@H](CC(=O)O)NC(=O)[C@H](CCCNC(=N)N)NC(=O)[C@H](CC(C)C)NC(=O)[C@H](CC(C)C)NC(=O)[C@H](CCCNC(=N)N)NC(=O)[C@H](CCCCN)NC(=O)[C@H](CCCNC(=N)N)NC(=O)[C@H](CC(C)C)NC(=O)[C@H](CCCCN)NC(=O)[C@H](CCCNC(=N)N)NC(=O)[C@H](CC(C)C)NC(=O)[C@H](Cc1c[nH]cn1)NC(=O)[C@H](CO)NC(=O)[C@H](C)NC(=O)[C@H](CC(C)C)NC(=O)[C@H](CCCNC(=N)N)NC(=O)[C@@H](NC(=O)[C@H](CCCNC(=N)N)NC(=O)[C@H](CC(C)C)NC(=O)[C@@H](N)CS)C(C)C)C(=O)O` [hEP-11], for which half-maximal inhibition in data set [1] (IC50) required 4 µM. In data set [2], this compound yielded a solubility below 220 µg/mL.

In data set [1], `CC(C)C[C@H](NC(=O)[C@H](CC(C)C)NC(=O)[C@H](CCCNC(=N)N)NC(=O)[C@H](CCCCN)NC(=O)[C@H](CCCNC(=N)N)NC(=O)[C@H](CC(C)C)NC(=O)[C@H](CCCCN)NC(=O)[C@H](CCCNC(=N)N)NC(=O)[C@H](CC(C)C)NC(=O)[C@@H](N)CS)C(=O)N[C@@H](CCCNC(=N)N)C(=O)N[C@@H](CS)C(=O)O` [hEP-12, CLRKLRKRLLRC] (H-CLRKLRKRLLRC-OH; N-terminus and C-terminus assumed) showed a 50% inhibitory concentration (IC50) above 10 µM. In data set [2], this compound showed a solubility below 220 µg/mL.

“CEEIRARLSTHLRKMRKRLMRDADDLQKRLAVY [mEP-2]” had an IC50 in data set [1] above 10 µM. In data set [2], this compound yielded a solubility above 220 µg/mL.

In turn, “CEELRVRLASHLRKLRKRLLRDADDLQKRLAVY [hEP-2]” displayed a half-inhibitory concentration (IC50) in data set [1] of 0.5 µM. In addition, in data set [2], the solubility was above 220 µg/mL.

On to CEEQAQQIRLQAEAFQARLKSWFEPLVEDM [hEP-3], for which the “Inhibition of HCVcc infection/entry (in words)” value in data set [1] (Huh7.5.1 cells) is recorded as “dramatically reduced ability to inhibit HCVcc entry”. The DMPC binding entry in data set [3] is listed as “+ (+, reduction 25-50%)”. The same compound registered a solubility in data set [2] below 220 µg/mL.

In the case of “CVDRYEARLRARALKDRQKRLLKELSLLVRHLD [Scrambled, reference compound]”, the IC50 in data set [1] is above 10 µM. This compound also gave a solubility in data set [2] above 220 µg/mL.

CVRLASHLRKLRKRLLRDADDL [hEP-4] showed a half-maximal inhibitory concentration (IC50) in data set [1] above 10 µM. The compound further showed a solubility in data set [2] below 220 µg/mL.

On to CVRLASHLRKLRKRLLRDADDLQKRLAVY [hEP-10], for which the midpoint of inhibition in data set [1], the IC50, lay at 0.8 µM. For the same compound, the solubility in data set [2] is above 220 µg/mL.

In data set [1], “EELRVRLASHLRKLRKRLLRDADDLQKRLAVY [hEP-2/ΔCys]” yielded an IC50 above 10 µM. For the same compound, in data set [2], the solubility is above 220 µg/mL.

As for LRVRLASHLRKLRKRLLRDADDLQKRLAVY [hEP-7], the half-maximal inhibitory concentration (IC50) in data set [1] was above 10 µM.

The compound “VRLASHLRKLRKRLLRDADDLIRLQAEAFQARLKSWFEPLV [hEP-6]” came in with a concentration for half-maximal inhibition (IC50) in data set [1] above 10 µM.

VRLASHLRKLRKRLLRDADDLQKRLAVY [hEP-9] displayed a concentration for half-maximal inhibition (IC50) in data set [1] above 10 µM.

In the case of heparin [reference compound], the “Inhibition when present during the 4° C. attachment step only” value in data set [4] is “predominant”.
